Experimental data taken from PubChem BioAssay AID1259407 (Chemical Carcinogenesis Research Information System (CCRIS), 2018).
The source made the active and inactive calls. How the calls were made is not given here.

System: CCRIS mutagenicity, Ames/micronucleus/aberration tests
Experiment: CCRIS mutagenicity studies
[1] = Test System: AMES SALMONELLA TYPHIMURIUM, Strain/Indicator: TA98, Metabolic Activation: NONE, Method: STANDARD PLATE
[2] = Test System: AMES SALMONELLA TYPHIMURIUM, Strain/Indicator: TA98, Metabolic Activation: RAT, LIVER, S-9, AROCLOR 1254, Method: STANDARD PLATE
[3] = Test System: AMES SALMONELLA TYPHIMURIUM, Strain/Indicator: TA100, Metabolic Activation: NONE, Method: STANDARD PLATE
[4] = Test System: AMES SALMONELLA TYPHIMURIUM, Strain/Indicator: TA100, Metabolic Activation: RAT, LIVER, S-9, AROCLOR 1254, Method: STANDARD PLATE
[5] = Test System: AMES SALMONELLA TYPHIMURIUM, Strain/Indicator: TA1535, Metabolic Activation: NONE, Method: STANDARD PLATE
[6] = Test System: AMES SALMONELLA TYPHIMURIUM, Strain/Indicator: TA1535, Metabolic Activation: RAT, LIVER, S-9, AROCLOR 1254, Method: STANDARD PLATE
[7] = Test System: AMES SALMONELLA TYPHIMURIUM, Strain/Indicator: TA1537, Metabolic Activation: NONE, Method: STANDARD PLATE
[8] = Test System: AMES SALMONELLA TYPHIMURIUM, Strain/Indicator: TA1537, Metabolic Activation: RAT, LIVER, S-9, AROCLOR 1254, Method: STANDARD PLATE
[9] = Test System: AMES SALMONELLA TYPHIMURIUM, Strain/Indicator: TA1538, Metabolic Activation: NONE, Method: STANDARD PLATE
[10] = Test System: AMES SALMONELLA TYPHIMURIUM, Strain/Indicator: TA1538, Metabolic Activation: RAT, LIVER, S-9, AROCLOR 1254, Method: STANDARD PLATE

## Cc1cc(S(=O)(=O)O)ccc1N
Test System: AMES SALMONELLA TYPHIMURIUM, Strain/Indicator: TA98, Metabolic Activation: HAMSTER, LIVER, S-9, AROCLOR 1254, Method: STANDARD PLATE
  mutagenic call: inactive; negative
[1]
  mutagenic call: inactive; negative
[2]
  mutagenic call: inactive; negative
Test System: AMES SALMONELLA TYPHIMURIUM, Strain/Indicator: TA100, Metabolic Activation: HAMSTER, LIVER, S-9, AROCLOR 1254, Method: STANDARD PLATE
  mutagenic call: inactive; negative
[3]
  mutagenic call: inactive; negative
[4]
  mutagenic call: inactive; negative
Test System: AMES SALMONELLA TYPHIMURIUM, Strain/Indicator: TA1535, Metabolic Activation: HAMSTER, LIVER, S-9, AROCLOR 1254, Method: STANDARD PLATE
  mutagenic call: inactive; negative
[5]
  mutagenic call: inactive; negative
[6]
  mutagenic call: inactive; negative
Test System: AMES SALMONELLA TYPHIMURIUM, Strain/Indicator: TA1537, Metabolic Activation: HAMSTER, LIVER, S-9, AROCLOR 1254, Method: STANDARD PLATE
  mutagenic call: inactive; negative
[7]
  mutagenic call: inactive; negative
[8]
  mutagenic call: inactive; negative
Test System: AMES SALMONELLA TYPHIMURIUM, Strain/Indicator: TA1538, Metabolic Activation: HAMSTER, LIVER, S-9, AROCLOR 1254, Method: STANDARD PLATE
  mutagenic call: inactive; negative
[9]
  mutagenic call: inactive; negative
[10]
  mutagenic call: inactive; negative
Test System: MOUSE LYMPHOMA, Strain/Indicator: L5178Y (TK+/TK-), Metabolic Activation: NONE, Method: SUSPENSION/PLATE
  mutagenic call: inactive; negative. reevaluation of results: negative
Test System: MOUSE LYMPHOMA, Strain/Indicator: L5178Y (TK+/TK-), Metabolic Activation: RAT, LIVER, S-9, AROCLOR 1254, Method: SUSPENSION/PLATE
  mutagenic call: active; positive. reevaluation of results: positive

## O=[N+]([O-])c1ccc2oc3ccc([N+](=O)[O-])cc3c2c1
Test System: AMES SALMONELLA TYPHIMURIUM, Strain/Indicator: TA98(1,8-DNP6), Metabolic Activation: NONE, Method: PREINCUBATION
  mutagenic call: active; positive
Test System: AMES SALMONELLA TYPHIMURIUM, Strain/Indicator: TA98(1,8-DNP6), Metabolic Activation: NONE, Method: SUSPENSION
  mutagenic call: active; positive
Test System: AMES SALMONELLA TYPHIMURIUM, Strain/Indicator: TA98(1,8-DNP6), Metabolic Activation: RAT, LIVER, S-9, PCB (5%), Method: PREINCUBATION
  mutagenic call: active; positive
Test System: AMES SALMONELLA TYPHIMURIUM, Strain/Indicator: TA98(NR), Metabolic Activation: NONE, Method: PREINCUBATION
  mutagenic call: inactive; negative
Test System: AMES SALMONELLA TYPHIMURIUM, Strain/Indicator: TA98(NR), Metabolic Activation: NONE, Method: SUSPENSION
  mutagenic call: inactive; negative
Test System: AMES SALMONELLA TYPHIMURIUM, Strain/Indicator: TA98(NR), Metabolic Activation: RAT, LIVER, S-9 (10%), Method: PREINCUBATION
  mutagenic call: active; positive
Test System: AMES SALMONELLA TYPHIMURIUM, Strain/Indicator: TA98(NR), Metabolic Activation: RAT, LIVER, S-9, 3-METHYLCHOLANTHRENE (10%), Method: PREINCUBATION
  mutagenic call: active; positive
Test System: AMES SALMONELLA TYPHIMURIUM, Strain/Indicator: TA98(NR), Metabolic Activation: RAT, LIVER, S-9, BETA-NAPHTHOFLAVONE (10%), Method: PREINCUBATION
  mutagenic call: active; positive
Test System: AMES SALMONELLA TYPHIMURIUM, Strain/Indicator: TA98(NR), Metabolic Activation: RAT, LIVER, S-9, PCB (5 OR 10%), Method: PREINCUBATION
  mutagenic call: active; positive
Test System: AMES SALMONELLA TYPHIMURIUM, Strain/Indicator: TA98(NR), Metabolic Activation: RAT, LIVER, S-9, PHENOBARBITAL (10%), Method: PREINCUBATION
  mutagenic call: active; positive
Test System: AMES SALMONELLA TYPHIMURIUM, Strain/Indicator: TA98, Metabolic Activation: NONE, Method: PREINCUBATION
  mutagenic call: active; positive
Test System: AMES SALMONELLA TYPHIMURIUM, Strain/Indicator: TA98, Metabolic Activation: NONE, Method: SUSPENSION
  mutagenic call: active; positive
Test System: AMES SALMONELLA TYPHIMURIUM, Strain/Indicator: TA98, Metabolic Activation: RAT, LIVER, S-9, PCB (5%), Method: PREINCUBATION
  mutagenic call: active; positive
Test System: AMES SALMONELLA TYPHIMURIUM, Strain/Indicator: TA98, Metabolic Activation: RAT, LIVER, S-9, PCB, Method: SUSPENSION
  mutagenic call: active; positive
Test System: AMES SALMONELLA TYPHIMURIUM, Strain/Indicator: TA100, Metabolic Activation: NONE, Method: PREINCUBATION
  mutagenic call: inactive; negative
Test System: AMES SALMONELLA TYPHIMURIUM, Strain/Indicator: TA100, Metabolic Activation: NONE, Method: SUSPENSION
  mutagenic call: inactive; negative
Test System: AMES SALMONELLA TYPHIMURIUM, Strain/Indicator: TA100, Metabolic Activation: RAT, LIVER, S-9, PCB (5%), Method: PREINCUBATION
  mutagenic call: inactive; negative
Test System: AMES SALMONELLA TYPHIMURIUM, Strain/Indicator: TA100, Metabolic Activation: RAT, LIVER, S-9, PCB, Method: SUSPENSION
  mutagenic call: inactive; negative

## CC(O)CN(C)c1ccc(NN)nn1 (stereo unspecified)
Test System: AMES SALMONELLA TYPHIMURIUM, Strain/Indicator: TA97, Metabolic Activation: NONE, Method: STANDARD PLATE
  mutagenic call: active; positive
Test System: AMES SALMONELLA TYPHIMURIUM, Strain/Indicator: TA97, Metabolic Activation: RAT, LIVER, S-9, AROCLOR 1254, Method: STANDARD PLATE
  mutagenic call: active; positive
[1]
  mutagenic call: active; positive
[2]
  mutagenic call: active; positive
[3]
  mutagenic call: inactive; negative
[4]
  mutagenic call: inactive; negative
Test System: AMES SALMONELLA TYPHIMURIUM, Strain/Indicator: TA102, Metabolic Activation: NONE, Method: STANDARD PLATE
  mutagenic call: active; positive
Test System: AMES SALMONELLA TYPHIMURIUM, Strain/Indicator: TA102, Metabolic Activation: RAT, LIVER, S-9, AROCLOR 1254, Method: STANDARD PLATE
  mutagenic call: inactive; negative
[5]
  mutagenic call: inactive; negative
[6]
  mutagenic call: inactive; negative
[7]
  mutagenic call: active; positive
[8]
  mutagenic call: active; positive
[9]
  mutagenic call: active; positive
[10]
  mutagenic call: active; positive
Test System: E. COLI, Strain/Indicator: WP2, Metabolic Activation: RAT, LIVER, S-9, AROCLOR 1254, Method: STANDARD PLATE
  mutagenic call: inactive; negative
Test System: E. COLI, Strain/Indicator: WP2 UVRA, Metabolic Activation: RAT, LIVER, S-9, AROCLOR 1254, Method: STANDARD PLATE
  mutagenic call: active; positive
